Experimental data published in patent US20200207989A1, “FLUORESCENT PROBE FOR ALDH3A1 DETECTION” (The University of Tokyo, priority 2016, published 2020).

Tests used:
ALDH3A1 = target: T1, ALDH3A1 (Homo sapiens, UniProt P30838); assay: Kinetic characteristics (Michaelis-Menten Km, Kcat) with ALDH3A1; assay type: biochemical; settings: five minutes at 37° C., Tris buffer pH 7.5
T1 construct: purchased
T1 sequence (P30838 1-453): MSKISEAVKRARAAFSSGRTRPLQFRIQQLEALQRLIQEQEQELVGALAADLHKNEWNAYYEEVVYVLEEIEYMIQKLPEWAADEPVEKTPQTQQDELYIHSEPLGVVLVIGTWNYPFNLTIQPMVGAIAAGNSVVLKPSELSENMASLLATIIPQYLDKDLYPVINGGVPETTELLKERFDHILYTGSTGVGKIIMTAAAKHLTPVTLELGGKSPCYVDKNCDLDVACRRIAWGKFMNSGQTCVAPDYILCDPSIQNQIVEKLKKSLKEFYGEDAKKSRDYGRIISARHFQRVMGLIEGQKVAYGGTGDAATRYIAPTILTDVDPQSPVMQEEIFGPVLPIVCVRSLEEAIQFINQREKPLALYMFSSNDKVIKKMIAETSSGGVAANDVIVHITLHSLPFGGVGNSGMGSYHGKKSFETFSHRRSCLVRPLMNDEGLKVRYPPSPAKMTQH
Method: Human recombinant ALDH1A1/1A3/3A1 was purchased, and 100 mM of KCL, 2 mM of DTT, 1 mM of NAD(P), 10-100 nM of each ALDH, and 10-80 μM of each compound were mixed in Tris buffer (100 mM, pH 7.5), reacted for 30 minutes at 37° C., an equal amount of acetonitrile added, and the reaction stopped. The reaction solution was analyzed by UPLC/MS/MS (Waters). The UPCL chromatogram was carried out over five minutes at a flow rate of 800 μL/min by a linear gradient from 5% acetonitrile 0.01 M ammonium formate/water to 95% acetonitrile 0.01 M ammonium formate/water. An aldehyde-form and carboxylic acid-form probe were detected by the absorbance at a wavelength of 504 nm, and m/z of the MS spectrum at each peak was confirmed to agree with the expected m/z.
For the reaction, 100 mM of KCL, 2 mM of DTT, 1 mM of NAD(P), and five to six concentrations within the range of 10-100 nM of each ALDH and 0.1-80 μM of each probe were selected, mixed in Tris buffer (100 mM, pH 7.5), and reacted for five minutes at 37° C.; an equal amount of acetonitrile was added, and the reaction was stopped. Detection of the aldehyde-form/carboxylic acid-form probes was carried out using the same method as described above by UPLC/MS/MS. Km and Kcat were calculated by fitting the reaction rate at each probe concentration obtained to the Michaelis-Menten equation. A Kaleida Graph ver. 4.1 (Hulinks, Inc.) was used in fitting.
The Kcat ratio (Kcat of ALDH3A1/Kcat of ALDH1A1) was calculated for probe 1, probe 3, and probe 5 as an indicator of ALDH1A1/ALDH3A1 specificity because the probe reaction rate at the actual probe use concentration is believed to be close to Vmax since Km is relatively small (Table 5).

OE21 cells [1] = assay: Flow cytometry of OE21 cells (positive rate); assay type: cell-based
Method: Flow cytometry was carried out using probe 5 and OE21 cells. The cells were treated using trypsin, and the cell density was measured after passing the cells through a cell strainer (40 μm, Corning). […] After centrifuging for three minutes at 1500 rpm and removing the supernatant after the reaction, the cells were washed with chilled medium, centrifuged, and the medium was removed. The cells were again suspended in 100 μL of medium, and 4 μL of SYTOX (registered trademark) Red Dead Cell Stain (Thermo Fisher) was added. After standing for five minutes on ice, 150 μL of medium was added. […] Analysis was carried out using FACS Canto II (BD Biosciences). Excitation was provided by a blue laser (488 nm), and the brightness of probe 5 was detected in each cell by FITC channel (515-545 nm). About 30,000 cells were analyzed in each sample after removing doublets and removing dead cells. The positive gate was set in a range from near to above the upper limit of brightness in the negative control according to ALDEFLUOR assay, so that at most 3% of the cells were present within the gate in the negative control sample. Three independent tests were run.
ALDH3A1 was knocked down using small interference RNA (siRNA) to confirm that the positive group in flow cytometry using 0E21 cells and compound 5 was due to ALDH3A1 activity, and flow cytometry was conducted. Two siRNAs confirmed to be effective (Silencer (registered trademark) Select, s1243 and s1244) and a negative control (Silencer® negative control #1) were purchased from Thermo Fisher. Lipofectamine® RNAiMAX as transfection reagent and Opti-MEM® as diluent were purchased from Thermo Fisher. According to the instruction manual, 300 μL of siRNA-Lipofectamine complex was produced according to the instruction manual so that siRNA was 10 nM and Lipofectamine was 3%, and 250 μL thereof was mixed with 2.5 mL of OE21 cell suspension and sown in six-well dishes. The effect of knockdown was confirmed after six days by Western blotting (FIG. 6a).
Lysates were produced using negative control cells (ctrl) in which ALDH3A1 was not knocked down and cells (KD) in which ALDH3A1 was permanently knocked down. Western blotting was carried out, and pronounced knockdown of ALDH3A1 was confirmed (FIG. 9a). […] The top 25% (top) and bottom 25% (bottom) of fluorescent brightness were sorted out by FACS Aria II using a sample in which the positive and negative were well separated. The respective lysates were produced, Western blotting was carried out using the same, and the expression levels of ALDH3A1 were compared (FIG. 9c).

OE21 cells [2] = assay: SYTOX Red Dead Cell Stain assay during flow cytometry; assay type: cell-based; settings: OE21 shRNA cells, probe 5 with MK-571, SYTOX Red Dead Cell Stain
Method: Flow cytometry was carried out using probe 5 and OE21 cells. The cells were treated using trypsin, and the cell density was measured after passing the cells through a cell strainer (40 μm, Corning). A quantity of 500 μL of a cell suspension to make 2.5-5×10^5/mL in medium containing 40 μM of probe 5 was prepared and cultured for 90 minutes at 37° C. After centrifuging for three minutes at 1500 rpm and removing the supernatant after the reaction, the cells were washed with chilled medium, centrifuged, and the medium was removed. The cells were again suspended in 100 μL of medium, and 4 μL of SYTOX (registered trademark) Red Dead Cell Stain (Thermo Fisher) was added. After standing for five minutes on ice, 150 μL of medium was added. A sample with CB7 (10 μM) added was used as a negative control. Analysis was carried out using FACS Canto II (BD Biosciences). Excitation was provided by a blue laser (488 nm), and the brightness of probe 5 was detected in each cell by FITC channel (515-545 nm). About 30,000 cells were analyzed in each sample after removing doublets and removing dead cells. The positive gate was set in a range from near to above the upper limit of brightness in the negative control according to ALDEFLUOR assay, so that at most 3% of the cells were present within the gate in the negative control sample. Three independent tests were run. […]

[3] = 50 μM probe 5, 200 μM MK-571, CB7 20 μM control

CCN(CCOCCNC(=O)c1ccc(-c2c3ccc(=O)cc-3oc3cc(O)ccc23)c(C)c1)c1ccc(C=O)cc1 [Probe 5, 2-(2-(N-ethyl-N-(4-formylphenyl)amino)ethoxy)ethyl-3-methyl-4-(6-hydroxyxanthen-3-on-9-yl)-benzamide]
Km (ALDH3A1): 3.49 ± 0.55 µM | Positive rate in flow cytometry (OE21 cells [1]; 40 μM probe 5, 90 minutes at 37° C., no MK-571, gate set with CB7 10 μM control): 10-15% | Positive rate in flow cytometry with MK-571, ALDH3A1 siRNA knockdown (OE21 cells [1]; [3]): around 10% | Positive rate in flow cytometry with MK-571, cells treated by negative control siRNA (OE21 cells [1]; [3]): about 90% | Positive rate in flow cytometry with MK-571 (OE21 cells [1]; 50 μM probe 5, MK-571 200 μM): about 90% | Dead cells / cell death due to the probe (OE21 cells [2]): virtually no dead cells were found
